From PubChem BioAssay (NCI)
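Values below derive from 48-hour exposures of cells grown in 96-well plates, with endpoints linearly interpolated between the two concentrations bracketing the appropriate inhibition level. At the TGI there is no net growth.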

What was measured:
Test in all cases: NCI anticancer screen, dose series, 48 h
[1] = system: NCI-H23 lung
[2] = system: HS 578T breast
[3] = system: SF-539 CNS
[4] = system: SN12C renal
[5] = system: EKVX NSCLC
[6] = system: NCI/ADR-RES ovarian
[7] = system: A549 NSCLC
[8] = system: NCI-H460 lung
[9] = system: SF-295 CNS
[10] = system: UACC-62 melanoma
[11] = system: HCT-116 colon
[12] = system: CAKI-1 renal
[13] = system: RPMI-8226 leukemia
[14] = system: SW-620 colon
[15] = system: BT-549 breast
[16] = system: MOLT-4 leukemia
[17] = system: HCT-15 colon
[18] = system: HCC-2998 colon
[19] = system: COLO 205 colon
[20] = system: UO-31 renal
[21] = system: RXF 393 renal
[22] = system: HOP-62 NSCLC
[23] = system: SK-MEL-2 melanoma
[24] = system: OVCAR-3 ovarian
[25] = system: ACHN renal
[26] = system: OVCAR-4 ovarian
[27] = system: SK-OV-3 ovarian
[28] = system: OVCAR-5 ovarian
[29] = system: NCI-H522 lung
[30] = system: SR leukemia
[31] = system: SNB-75 CNS
[32] = system: KM12 colon
[33] = system: SNB-19 CNS
[34] = system: MALME-3M melanoma
[35] = system: PC-3 prostate
[36] = system: 786-0 renal
[37] = system: MDA-MB-435
[38] = system: DU-145 prostate
[39] = system: HT29 colon
[40] = system: UACC-257 melanoma
[41] = system: OVCAR-8 ovarian
[42] = system: T-47D breast
[43] = system: IGROV1 ovarian
[44] = system: MDA-N
[45] = system: NCI-H226 lung
[46] = system: MDA-MB-231 breast
[47] = system: SF-268 CNS
[48] = system: MCF7 breast
[49] = system: SK-MEL-28 melanoma
[50] = system: K-562 leukemia
[51] = system: LOX IMVI melanoma
[52] = system: HOP-92 NSCLC
[53] = system: HL-60(TB) leukemia
[54] = system: M14 melanoma
[55] = system: TK-10 renal
[56] = system: SK-MEL-5 melanoma
[57] = system: A498 renal
[58] = system: CCRF-CEM leukemia
[59] = system: U251 CNS

O=C(Oc1cccc(Cl)c1)c1cc2cc(CCl)ccc2oc1=O
TGI [1]: > 100 µM | TGI [2]: > 100 µM | TGI [3]: > 100 µM | TGI [4]: > 100 µM | TGI [5]: > 100 µM | TGI [6]: > 100 µM | TGI [7]: > 100 µM | TGI [8]: > 100 µM | TGI [9]: > 100 µM | TGI [10]: 28.2 µM | TGI [11]: > 100 µM | TGI [12]: > 100 µM | TGI [13]: > 100 µM | TGI [14]: > 100 µM | TGI [15]: > 100 µM | TGI [16]: > 100 µM | TGI [17]: > 100 µM | TGI [18]: 34.4 µM | TGI [19]: 45.9 µM | TGI [20]: > 100 µM | TGI [21]: 62.7 µM | TGI [22]: > 100 µM | TGI [23]: 28.9 µM | TGI [24]: > 100 µM | TGI [25]: 38.5 µM | TGI [26]: > 100 µM | TGI [27]: > 100 µM | TGI [28]: > 100 µM | TGI [29]: 49.5 µM | TGI [30]: > 100 µM | TGI [31]: > 100 µM | TGI [32]: > 100 µM | TGI [33]: > 100 µM | TGI [34]: 33.5 µM | TGI [35]: > 100 µM | TGI [36]: > 100 µM | TGI [37]: > 100 µM | TGI [38]: 62.9 µM | TGI [39]: > 100 µM | TGI [40]: 31.3 µM | TGI [41]: > 100 µM | TGI [42]: > 100 µM | TGI [43]: > 100 µM | TGI [44]: > 100 µM | TGI [45]: > 100 µM | TGI [46]: > 100 µM | TGI [47]: > 100 µM | TGI [48]: 99.6 µM | TGI [49]: > 100 µM | TGI [50]: > 100 µM | TGI [51]: > 100 µM | TGI [52]: 43.1 µM | TGI [53]: 82 µM | TGI [54]: 31.4 µM | TGI [55]: > 100 µM | TGI [56]: 33.2 µM

O=C1OC(=O)C2C1C(c1ccccc1[N+](=O)[O-])C=C(c1ccco1)N2c1ccncc1 (centres undefined)
TGI [1]: 26.2 µM | TGI [2]: > 100 µM | TGI [3]: 16.6 µM | TGI [4]: 25 µM | TGI [5]: 39.7 µM | TGI [6]: 52.6 µM | TGI [7]: 31.6 µM | TGI [8]: 31.9 µM | TGI [9]: 24.5 µM | TGI [10]: 36.4 µM | TGI [11]: 3.31 µM | TGI [12]: 37.5 µM | TGI [13]: 4.4 µM | TGI [14]: 15 µM | TGI [15]: 35.4 µM | TGI [16]: 6.38 µM | TGI [17]: 12.8 µM | TGI [19]: 23.9 µM | TGI [20]: 15.3 µM | TGI [21]: 19.1 µM | TGI [22]: 38.2 µM | TGI [23]: 19.8 µM | TGI [24]: 30.5 µM | TGI [25]: 3.24 µM | TGI [26]: 29.8 µM | TGI [27]: 32 µM | TGI [28]: 51.6 µM | TGI [29]: 6.17 µM | TGI [30]: 1.44 µM | TGI [31]: 35.2 µM | TGI [32]: 4.65 µM | TGI [33]: 35.5 µM | TGI [34]: 40.6 µM | TGI [35]: 28.1 µM | TGI [36]: 3.97 µM | TGI [37]: 52.6 µM | TGI [38]: 19.7 µM | TGI [39]: 6.13 µM | TGI [40]: 6.84 µM | TGI [41]: 31.8 µM | TGI [42]: 14 µM | TGI [43]: 5.3 µM | TGI [44]: 18.8 µM | TGI [45]: > 39.2 µM | TGI [57]: 26.9 µM | TGI [46]: 32.9 µM | TGI [47]: 46.3 µM | TGI [48]: 6.73 µM | TGI [49]: 24.5 µM | TGI [50]: 5.33 µM | TGI [51]: 3.82 µM | TGI [52]: 15.8 µM | TGI [58]: 17 µM | TGI [53]: 5.63 µM | TGI [54]: > 50.5 µM | TGI [55]: > 26.9 µM | TGI [59]: 12 µM | TGI [56]: 19.7 µM
